# Experimental data reported in PubChem BioAssay (NCI).
#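 Five concentrations, 48 hours, 96-well plates. At the GI50, growth is halved. TGI marks complete inhibition of growth.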
# Columns and labels:
# Assay in all cases: NCI tumour cell line growth inhibition, 48 h
# 786-0 renal = test system: 786-0 renal
# A498 renal = test system: A498 renal
# A549 NSCLC = test system: A549 NSCLC
# ACHN renal = test system: ACHN renal
# BT-549 breast = test system: BT-549 breast
# CAKI-1 renal = test system: CAKI-1 renal
# CCRF-CEM leukemia = test system: CCRF-CEM leukemia
# COLO 205 colon = test system: COLO 205 colon
# DU-145 prostate = test system: DU-145 prostate
# HCC-2998 colon = test system: HCC-2998 colon
# HCT-116 colon = test system: HCT-116 colon
# HCT-15 colon = test system: HCT-15 colon
# HL-60(TB) leukemia = test system: HL-60(TB) leukemia
# HOP-62 NSCLC = test system: HOP-62 NSCLC
# HOP-92 NSCLC = test system: HOP-92 NSCLC
# HS 578T breast = test system: HS 578T breast
# HT29 colon = test system: HT29 colon
# IGROV1 ovarian = test system: IGROV1 ovarian
# K-562 leukemia = test system: K-562 leukemia
# KM12 colon = test system: KM12 colon
# LOX IMVI melanoma = test system: LOX IMVI melanoma
# M14 melanoma = test system: M14 melanoma
# MALME-3M melanoma = test system: MALME-3M melanoma
# MCF7 breast = test system: MCF7 breast
# MDA-MB-231 breast = test system: MDA-MB-231 breast
# MDA-MB-435 = test system: MDA-MB-435
# MOLT-4 leukemia = test system: MOLT-4 leukemia
# NCI-H226 lung = test system: NCI-H226 lung
# NCI-H23 lung = test system: NCI-H23 lung
# NCI-H460 lung = test system: NCI-H460 lung
# NCI-H522 lung = test system: NCI-H522 lung
# NCI/ADR-RES ovarian = test system: NCI/ADR-RES ovarian
# OVCAR-3 ovarian = test system: OVCAR-3 ovarian
# OVCAR-4 ovarian = test system: OVCAR-4 ovarian
# OVCAR-5 ovarian = test system: OVCAR-5 ovarian
# OVCAR-8 ovarian = test system: OVCAR-8 ovarian
# PC-3 prostate = test system: PC-3 prostate
# RPMI-8226 leukemia = test system: RPMI-8226 leukemia
# RXF 393 renal = test system: RXF 393 renal
# SF-268 CNS = test system: SF-268 CNS
# SF-295 CNS = test system: SF-295 CNS
# SF-539 CNS = test system: SF-539 CNS
# SK-MEL-2 melanoma = test system: SK-MEL-2 melanoma
# SK-MEL-28 melanoma = test system: SK-MEL-28 melanoma
# SK-MEL-5 melanoma = test system: SK-MEL-5 melanoma
# SK-OV-3 ovarian = test system: SK-OV-3 ovarian
# SN12C renal = test system: SN12C renal
# SNB-19 CNS = test system: SNB-19 CNS
# SNB-75 CNS = test system: SNB-75 CNS
# SR leukemia = test system: SR leukemia
# SW-620 colon = test system: SW-620 colon
# T-47D breast = test system: T-47D breast
# TK-10 renal = test system: TK-10 renal
# U251 CNS = test system: U251 CNS
# UACC-257 melanoma = test system: UACC-257 melanoma
# UACC-62 melanoma = test system: UACC-62 melanoma
# UO-31 renal = test system: UO-31 renal
smiles,measurement,setting,value
O=C1NC(=O)C(c2c[nH]c3ccccc23)=C1c1ccccc1,GI50,786-0 renal,> 25 µM
same,TGI,786-0 renal,> 25 µM
same,GI50,A498 renal,> 17.6 µM
same,TGI,A498 renal,> 25 µM
same,GI50,A549 NSCLC,> 25 µM
same,TGI,A549 NSCLC,> 25 µM
same,GI50,ACHN renal,> 25 µM
same,TGI,ACHN renal,> 25 µM
same,GI50,BT-549 breast,> 25 µM
same,TGI,BT-549 breast,> 25 µM
same,GI50,CAKI-1 renal,> 25 µM
same,TGI,CAKI-1 renal,> 25 µM
same,GI50,CCRF-CEM leukemia,> 25 µM
same,TGI,CCRF-CEM leukemia,> 25 µM
same,GI50,COLO 205 colon,> 25 µM
same,TGI,COLO 205 colon,> 25 µM
same,GI50,DU-145 prostate,> 25 µM
same,TGI,DU-145 prostate,> 25 µM
same,GI50,HCC-2998 colon,> 25 µM
same,TGI,HCC-2998 colon,> 25 µM
same,GI50,HCT-116 colon,> 25 µM
same,TGI,HCT-116 colon,> 25 µM
same,GI50,HCT-15 colon,> 25 µM
same,TGI,HCT-15 colon,> 25 µM
same,GI50,HL-60(TB) leukemia,> 25 µM
same,TGI,HL-60(TB) leukemia,> 25 µM
same,GI50,HOP-62 NSCLC,> 25 µM
same,TGI,HOP-62 NSCLC,> 25 µM
same,GI50,HOP-92 NSCLC,> 25 µM
same,TGI,HOP-92 NSCLC,> 25 µM
same,GI50,HS 578T breast,> 25 µM
same,TGI,HS 578T breast,> 25 µM
same,GI50,HT29 colon,> 25 µM
same,TGI,HT29 colon,> 25 µM
same,GI50,IGROV1 ovarian,> 25 µM
same,TGI,IGROV1 ovarian,> 25 µM
same,GI50,K-562 leukemia,> 25 µM
same,TGI,K-562 leukemia,> 25 µM
same,GI50,KM12 colon,> 25 µM
same,TGI,KM12 colon,> 25 µM
same,GI50,LOX IMVI melanoma,23.3 µM
same,TGI,LOX IMVI melanoma,> 25 µM
same,GI50,M14 melanoma,> 25 µM
same,TGI,M14 melanoma,> 25 µM
same,GI50,MALME-3M melanoma,> 25 µM
same,TGI,MALME-3M melanoma,> 25 µM
same,GI50,MCF7 breast,> 25 µM
same,TGI,MCF7 breast,> 25 µM
same,GI50,MDA-MB-231 breast,> 25 µM
same,TGI,MDA-MB-231 breast,> 25 µM
same,GI50,MDA-MB-435,> 25 µM
same,TGI,MDA-MB-435,> 25 µM
same,GI50,MOLT-4 leukemia,> 25 µM
same,TGI,MOLT-4 leukemia,> 25 µM
same,GI50,NCI-H226 lung,> 20.1 µM
same,TGI,NCI-H226 lung,> 25 µM
same,GI50,NCI-H23 lung,> 25 µM
same,TGI,NCI-H23 lung,> 25 µM
same,GI50,NCI-H460 lung,> 25 µM
same,TGI,NCI-H460 lung,> 25 µM
same,GI50,NCI-H522 lung,> 25 µM
same,TGI,NCI-H522 lung,> 25 µM
same,GI50,NCI/ADR-RES ovarian,> 25 µM
same,TGI,NCI/ADR-RES ovarian,> 25 µM
same,GI50,OVCAR-3 ovarian,> 25 µM
same,TGI,OVCAR-3 ovarian,> 25 µM
same,GI50,OVCAR-4 ovarian,> 25 µM
same,TGI,OVCAR-4 ovarian,> 25 µM
same,GI50,OVCAR-5 ovarian,> 25 µM
same,TGI,OVCAR-5 ovarian,> 25 µM
same,GI50,OVCAR-8 ovarian,> 25 µM
same,TGI,OVCAR-8 ovarian,> 25 µM
same,GI50,PC-3 prostate,> 25 µM
same,TGI,PC-3 prostate,> 25 µM
same,GI50,RPMI-8226 leukemia,> 25 µM
same,TGI,RPMI-8226 leukemia,> 25 µM
same,GI50,RXF 393 renal,> 25 µM
same,TGI,RXF 393 renal,> 25 µM
same,GI50,SF-268 CNS,> 25 µM
same,TGI,SF-268 CNS,> 25 µM
same,GI50,SF-295 CNS,> 25 µM
same,TGI,SF-295 CNS,> 25 µM
same,GI50,SF-539 CNS,> 25 µM
same,TGI,SF-539 CNS,> 25 µM
same,GI50,SK-MEL-2 melanoma,> 25 µM
same,TGI,SK-MEL-2 melanoma,> 25 µM
same,GI50,SK-MEL-28 melanoma,> 25 µM
same,TGI,SK-MEL-28 melanoma,> 25 µM
same,GI50,SK-MEL-5 melanoma,> 25 µM
same,TGI,SK-MEL-5 melanoma,> 25 µM
same,GI50,SK-OV-3 ovarian,> 25 µM
same,TGI,SK-OV-3 ovarian,> 25 µM
same,GI50,SN12C renal,> 25 µM
same,TGI,SN12C renal,> 25 µM
same,GI50,SNB-19 CNS,> 25 µM
same,TGI,SNB-19 CNS,> 25 µM
same,GI50,SNB-75 CNS,10.3 µM
same,TGI,SNB-75 CNS,> 25 µM
same,GI50,SR leukemia,> 25 µM
same,TGI,SR leukemia,> 25 µM
same,GI50,SW-620 colon,> 25 µM
same,TGI,SW-620 colon,> 25 µM
same,GI50,T-47D breast,> 25 µM
same,TGI,T-47D breast,> 25 µM
same,GI50,TK-10 renal,> 25 µM
same,TGI,TK-10 renal,> 25 µM
same,GI50,U251 CNS,> 25 µM
same,TGI,U251 CNS,> 25 µM
same,GI50,UACC-257 melanoma,> 25 µM
same,TGI,UACC-257 melanoma,> 25 µM
same,GI50,UACC-62 melanoma,> 25 µM
same,TGI,UACC-62 melanoma,> 25 µM
same,GI50,UO-31 renal,> 24 µM
same,TGI,UO-31 renal,> 25 µM
